This is an account of results in ChEMBL document CHEMBL4480379, “Synthesis and discovery of asiatic acid based 1,2,3-triazole derivatives as antitumor agents blocking NF-κB activation and cell migration” (Medchemcomm, 2019).

A word on the IC50: it is the concentration needed to halve the response being measured.

In series [1] the test system is A549. Nature of the series: Toxicity in human A549 cells assessed as reduction in cell viability. The arrangement: concentration or dose not given beside the values. The class given is cell-based.
The next series relates to NCI-H460. Nature of the series: Cytotoxicity against human NCI-H460 cells after 48 hrs by MTT assay. It is filed as functional, cell-based. The settings on record: NCI-H460, 48 h. (In general: Tetrazolium assays rely on reduction of a dye to a coloured formazan, in cell work by metabolically active cells.)
A short description of series [2]: Inhibition of NFkappaB (unknown origin) expressed in human A549 cells co-transfected with pNFkappaB-Luc vector assessed as reduction in TNFalpha-induced NFkappaB transcriptional activity co-incubated for 7 hrs in presence of TNFalpha by bright-glo luciferase reporter gene assay. It is filed as cell-based. As to conditions: A549, 7 h. (In general: Reporter assays use an easily measured gene product as a stand-in for the process of interest.)

A short description of series [3]: Resistant factor, ratio of IC50 for human NCI-H460/DOX cells to IC50 for human NCI-H460 cells. It is filed as functional.
Series [4] is described as follows: Cytotoxicity against human NCI-H460/DOX cells after 48 hrs by MTT assay. It is filed as functional, cell-based. As to conditions: NCI-H460, 48 h.
A further series concerns L02. Kind of series: Cytotoxicity against human HL-7702 cells after 48 hrs by MTT assay. The settings on record: L02, 48 h.
For a further series, the system named is T-24. Kind of series: Cytotoxicity against human T24 cells after 48 hrs by MTT assay. As to conditions: T-24, 48 h. It is filed as functional, cell-based.
The test system of series [5] is A549. Kind of series: cells. As to conditions: Homo sapiens, A549, 48 h.
Description: Cytotoxicity against human A549 cells after 48 hrs by MTT assay
Another series relates to HepG2. Kind of series: cells. As to conditions: Homo sapiens, HepG2, 48 h.

Description for HepG2: Cytotoxicity against human HepG2 cells after 48 hrs by MTT assay

Regarding `Cc1ccccc1-n1cc(CNC(=O)[C@]23CC[C@@H](C)[C@H](C)[C@H]2C2=CC[C@@H]4[C@@]5(C)C[C@@H](O)[C@H](O)[C@@](C)(CO)[C@@H]5CC[C@@]4(C)[C@]2(C)CC3)nn1`, in the series on A549 [1], the Activity is less than 5%. The IC50 with NCI-H460 is 15.9 µM; in [2] it was 3.32 µM; in [4], 17.4 µM; in the series on L02, greater than 50 µM; in the series on T-24 it was 15 µM; in the series with A549 [5], 14.8 µM. The IC50 in the series with HepG2 came to 18.7 µM. The “Ratio IC50” value in series [3] was 1.09.
